According to patent publication US9670482B2, “Multispecific peptides” (BICYCLE THERAPEUTICS LIMITED, priority 2009, dated 2017):
Residues, ends and D or L forms follow the SMILES beside them.

Legend:
Assay type in all cases: in vitro ADME
[1] = molecular target: T1, Cathepsin G (Homo sapiens, UniProt P08311); test: Peptide conjugate digestion with Cathepsin G; set-up: key to the marks not given beside the values; details: 37° C. for 1 hr
T1 sequence (P08311 21-244): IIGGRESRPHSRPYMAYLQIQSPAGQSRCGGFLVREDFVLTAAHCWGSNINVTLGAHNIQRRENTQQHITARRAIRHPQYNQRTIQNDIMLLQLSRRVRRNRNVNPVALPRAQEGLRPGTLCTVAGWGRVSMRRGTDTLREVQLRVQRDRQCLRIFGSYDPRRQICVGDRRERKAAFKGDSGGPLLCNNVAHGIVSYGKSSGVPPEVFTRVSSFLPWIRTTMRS
Description: (§1) Linear peptides (PK15 and CG4L1-PK15L1) were first treated with iodoacetamide prior to digestion studies. The peptides (ca 3-4 mg) were purified by HPLC (semi-prep Proteo column as described in general methods), and the HPLC fraction (ca 3 ml) was neutralised with an equal volume of 50 mM ammonium bicarbonate. […] The reaction mixture was concentrated (rotary evaporator) and re-purified by HPLC as above.
(§2) Peptides (linear and conjugates) were dissolved in water at a concentration of 1 mg/ml, giving an effective concentration of −0.5 mM stock solutions. 2 μl of peptide conjugates (˜30 μM in reactions depending on actual molecular weight) where dissolved in reaction buffer (see below) in a total reaction volume of 30 μl, followed by the protease, and samples were incubated at 37° C. for 1 hr. 10 μl aliquots were quenched into 20 μl of 10% dichloroacetic acid in MeCN/H2O (1:1) and stored at −20° C. for 30 minutes, centrifuged at 4° C. (13000 rpm) for 5 minutes and then spotted onto MALDI-TOF mass spectrometer plate for analysis.
(§3) All reactions at 37° C. Cathepsin G and kalikrein reactions were carried out in 10 mM Tris pH 7.4, 150 mM NaCl, 10 mM MgCl2, 1 mM CaCl2, 0.1% BSA, 0.01% Triton X100, 5% DMSO. Chymotrypsin reactions were carried out in 100 mM Tris pH 7.4, 10 mM CaCl2. Pronase and proteinase K reactions were carried out in 100 mM Tris pH 7.4, 0.5% SDS. Subtilisin reactions were carried out in 50 mM KH2PO4 pH 7.5. Trypsin reactions were carried out in 67 mM sodium phosphate pH 7.6. Reaction conditions with serum involve dissolving the peptide in 1×PBS (total volume 24 μl) and 6 μl of human serum added to the reaction.

[2] = tested on: Chymotrypsin; test: Peptide conjugate digestion with Chymotrypsin; details: 37° C. for 1 hr
Description: as §1, §2, §3

[3] = molecular target: Kalikrein (Homo sapiens, UniProt P03952); test: Peptide conjugate digestion with Kalikrein; set-up: digestion with Kalikrein: key to the marks not given beside the values; details: for digestion with Kalikrein: 37° C. for 1 hr
Description: as §1, §2, §3

[4] = tested on: Pronase; test: Peptide conjugate digestion with Pronase; set-up: key to the marks not given beside the values; details: 37° C. for 1 hr
Description: as §1, §2, §3

[5] = molecular target: Proteinase K (Parengyodontium album, UniProt P06873); test: Peptide conjugate digestion with Proteinase K; set-up: key to the marks not given beside the values; details: 37° C. for 1 hr
Description: as §1, §2, §3

[6] = tested on: Subtilisin; test: Peptide conjugate digestion with Subtilisin; details: 37° C. for 1 hr
Description: as §1, §2, §3

[7] = tested on: Trypsin; test: Peptide conjugate digestion with Trypsin; details: 37° C. for 1 hr
Description: as §1, §2, §3

[8] = Resistance to serum; details: 37° C., human serum in PBS; later times not yet tested
Description: as §2, §3

Kalikrein, sequence (P03952 20-638): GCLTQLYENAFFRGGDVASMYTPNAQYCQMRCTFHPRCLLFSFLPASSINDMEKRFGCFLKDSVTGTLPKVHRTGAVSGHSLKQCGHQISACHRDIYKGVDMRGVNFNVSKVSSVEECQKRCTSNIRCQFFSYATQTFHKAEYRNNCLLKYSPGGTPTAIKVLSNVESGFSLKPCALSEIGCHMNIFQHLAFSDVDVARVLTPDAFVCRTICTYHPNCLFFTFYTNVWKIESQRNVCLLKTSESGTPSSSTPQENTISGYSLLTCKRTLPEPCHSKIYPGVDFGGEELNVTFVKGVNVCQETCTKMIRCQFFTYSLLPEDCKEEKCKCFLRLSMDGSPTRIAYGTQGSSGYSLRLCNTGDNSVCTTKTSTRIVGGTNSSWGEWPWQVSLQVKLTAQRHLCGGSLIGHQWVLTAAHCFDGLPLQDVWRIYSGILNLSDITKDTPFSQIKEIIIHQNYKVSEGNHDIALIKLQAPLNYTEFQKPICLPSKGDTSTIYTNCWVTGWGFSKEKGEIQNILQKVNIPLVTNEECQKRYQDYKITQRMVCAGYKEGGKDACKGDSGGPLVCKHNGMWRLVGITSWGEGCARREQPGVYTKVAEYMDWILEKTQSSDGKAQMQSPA
Proteinase K, sequence (P06873 106-384): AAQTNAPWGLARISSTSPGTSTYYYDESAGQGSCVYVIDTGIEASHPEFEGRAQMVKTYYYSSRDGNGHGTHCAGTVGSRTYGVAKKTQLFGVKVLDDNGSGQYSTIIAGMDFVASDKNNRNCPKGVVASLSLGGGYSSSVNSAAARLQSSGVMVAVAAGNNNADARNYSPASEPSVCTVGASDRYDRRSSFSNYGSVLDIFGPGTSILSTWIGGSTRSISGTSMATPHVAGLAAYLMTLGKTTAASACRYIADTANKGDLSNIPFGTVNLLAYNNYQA

Structure (SMILES): CC(C)C[C@@H]1NC(=O)[C@H](C)NC(=O)[C@H](CCC(=O)O)NC(=O)[C@H](CC(=O)O)NC(=O)[C@H](C)NC(=O)[C@@H]2CCCN2C(=O)[C@@H]2CSCc3cc(cc(c3)CSC[C@@H](C(=O)NCC(=O)O)NC1=O)CSC[C@H](NC(=O)[C@H](C)N)C(=O)N[C@@H](CO)C(=O)N[C@@H](CC(=O)O)C(=O)N[C@@H](CCCNC(=N)N)C(=O)N[C@@H](Cc1ccccc1)C(=O)N[C@@H](CCCNC(=N)N)C(=O)N[C@@H](CC(N)=O)C(=O)N2 [PK15L1-PK15L2 bicyclic, reference compound] (HELM PEPTIDE1{A.C.S.D.R.F.R.N.C.P.A.D.E.A.L.C.G}|CHEM1{[c1c(C[*:1])cc(C[*:3])cc1C[*:2]]}$PEPTIDE1,CHEM1,2:R3-1:R1|PEPTIDE1,CHEM1,9:R3-1:R2|PEPTIDE1,CHEM1,16:R3-1:R3$$$V2.0)
- digestion with Cathepsin G ([1]; 0.01 μg enzyme per reaction): +++
- digestion with Cathepsin G ([1]; 0.1 μg enzyme per reaction): +++
- digestion with Chymotrypsin ([2]; 0.01 μg enzyme per reaction): +++
- digestion with Chymotrypsin ([2]; 0.1 μg enzyme per reaction): +++
- digestion with Chymotrypsin ([2]; 1 μg enzyme per reaction): +++
- digestion with Kalikrein ([3]; 0.01 μg enzyme per reaction): +++
- digestion with Kalikrein ([3]; 0.1 μg enzyme per reaction): +++
- digestion with Kalikrein ([3]; 1 μg enzyme per reaction): +++
- factor by which the TBMB conjugate is more resistant than the linear peptide to attack by kallikrein ([3]; by comparing different concentrations of enzyme): about 100 fold
- digestion with Pronase ([4]; 0.01 μg enzyme per reaction): +++
- digestion with Pronase ([4]; 0.1 μg enzyme per reaction): +++
- digestion with Proteinase K ([5]; 0.01 μg enzyme per reaction): +++
- digestion with Proteinase K ([5]; 0.1 μg enzyme per reaction): +++
- digestion with Proteinase K ([5]; 1 μg enzyme per reaction): +++
- digestion with Subtilisin ([6]; 0.009 μg enzyme per reaction): +++
- digestion with Subtilisin ([6]; 9 μg enzyme per reaction): −
- digestion with Trypsin ([7]; 0.01 μg enzyme per reaction): +++
- digestion with Trypsin ([7]; 10 μg enzyme per reaction): −
- time for which proteolysis in serum is resisted [8]: at least 48 hours
